Reference: patent US10383948B2, “Anti-cMet antibody drug conjugates and methods for their use” (AbbVie Inc., priority 2016, dated 2019)

Tests used:
CTG-0170 NSCL PDX = assay: Patient-derived xenograft, tumor growth delay; assay type: in vivo, NSG mice; settings: PDX CTG-0170 (NSCL); every seven days, six doses; median time to 1 cm^3 vs control
Experimental: Tumor fragments of 3 to 5 mm^3 at passage 3 (P3) were implanted subcutaneously in the right rear flank of NSG mice (The Jackson Laboratory) with a trochar. ABBV-399 and ABT-700 PBD were administered every seven days for a total of six doses. […] For all groups, tumor volumes were plotted only for the duration that allowed the full set of animal to remain on study. If animals had to be taken off study, the remaining animals were monitored for tumor growth until they reached defined end-points.

NSCLC = assay: Phase 1b combination with erlotinib; assay type: in vivo, human; settings: ABBV-399 2.7 mg/kg once every 21 days plus erlotinib 150 mg orally every day
Text: ABBV-399 will be combined with standard doses of erlotinib, cetuximab, bevacizumab or nivolumab starting at an ABBV-399 dose level below the MTD or MAD and then escalated no higher than MTD or MAD determined in the monotherapy dose-escalation/expansion. Dose limiting toxicity definitions will apply to the dose-escalation portion of each Combination.

MDA-MB-231 = assay: Cytotoxicity assay (CellTiter-Glo, 6 days); assay type: cell-based, human; settings: MDA-MB-231 breast cancer; relative to untreated control at ≤1 μg/mL in a six day proliferation
Experimental: (§1) Tumor cells were plated at 2000-5000 cells/well in 180 μL growth medium containing 10% FBS in 96-well plates, and cultured at 37° C. in a humidified incubator with 5% C02. The following day, titrations of antibodies or ADCs in 20 μL were added and cells were incubated for 6 days. Cell viability was determined using a CellTiter-Glo Luminescent Cell Viability Assay (Promega) according to the manufacturer's instructions. A non-binding, irrelevant negative control ADC conjugated to MMAE was also included in all assays to confirm that cell killing was antigen dependent.

SNU-5 = assay: Cytotoxicity assay (CellTiter-Glo, 6 days); assay type: cell-based, human
Experimental: as §1

[1] = test system: LG1049 patient-derived xenograft; assay: NSCLC patient-derived xenograft, Kaplan-Meier; assay type: in vivo, NSG mice; settings: ABBV-399 every four days x6, ABT-700 every seven days x6, FIGS. 10A-10B
Text: Tumor fragments of 3 to 5 mm^3 at passage 3 (P3) were implanted subcutaneously in the right rear flank of NSG mice (The Jackson Laboratory) with a trochar. For all groups, tumor volumes were plotted only for the duration that allowed the full set of animal to remain on study. If animals had to be taken off study, the remaining animals were monitored for tumor growth until they reached defined end-points. Efficacy is depicted on a Kaplan-Meier plot for (A) LG0703 and (B) LG1049 models as fractions reaching the indicated tumors volumes following therapy.

cMet+ NSCLC = assay: Phase 1 monotherapy in cMet+ NSCLC, best response; assay type: in vivo, human
Experimental: A dose of 2.7 mg/kg was chosen for dose-expansion based primarily on safety and tolerability. For enrollment in this phase of the study, NSCLC subjects were screened for cMet overexpression using an IHC assay utilizing the CONFIRM anti-total cMet (SP44) Rabbit Monoclonal Primary Antibody kit purchased from Ventana (REF #790-4430). Tissue samples were scored by determining the percentages of target tissue cells staining at various intensity levels of low to high, i.e. IHC score of 0, 1+, 2+ or 3+ or an H-score of 0 to 149, 150-224, or 225-300. The scoring can be done either manually or via the aid of a computer. Details of the IHC assay and scoring are described in Example 17.

[2] = test system: NHBE (normal bronchial epithelial); assay: Cytotoxicity assay (CellTiter-Glo, 6 days); assay type: cell-based; settings: NHBE (bronchial epithelial) non-tumor; relative to untreated control at ≤1 μg/mL in a six day proliferation
Experimental: as §1
as §1, with “of” for “of antibodies or”, “antigen-dependent.” for “antigen dependent.”

[3] = test system: EBC-1 ABT-700R xenograft tumors; assay: ABT-700-refractory xenograft efficacy; assay type: in vivo, mice; settings: EBC-1, ABT-700 followed by ABBV-399; FIG. 12C
[4] = test system: NHDF (dermal fibroblasts); assay: Cytotoxicity assay (CellTiter-Glo, 6 days); assay type: cell-based; settings: NHDF (dermal fibroblasts) non-tumor; relative to untreated control at ≤1 μg/mL in a six day proliferation
Experimental: as §1

[5] = test system: HUVEC (vascular endothelial); assay: Cytotoxicity assay (CellTiter-Glo, 6 days); assay type: cell-based; settings: HUVEC (vascular endothelial) non-tumor; relative to untreated control at ≤1 μg/mL in a six day proliferation
Experimental: as §1

[6] = test system: HMEC (mammary epithelial); assay: Cytotoxicity assay (CellTiter-Glo, 6 days); assay type: cell-based; settings: HMEC (mammary epithelial) non-tumor; relative to untreated control at ≤1 μg/mL in a six day proliferation
Experimental: as §1

[7] = test system: PrEC (prostate epithelial); assay: Cytotoxicity assay (CellTiter-Glo, 6 days); assay type: cell-based; settings: PrEC (prostate epithelial) non-tumor; relative to untreated control at ≤1 μg/mL in a six day proliferation
Experimental: as §1

[8] = test system: Hs746T ABT-700R xenografts; assay: ABT-700-refractory xenograft efficacy; assay type: in vivo, mice
NCI-H820 = assay: Cytotoxicity assay (CellTiter-Glo, 6 days); assay type: cell-based, human; settings: NCI-H820 lung cancer; relative to untreated control at ≤1 μg/mL in a six day proliferation
Experimental: as §1, with “instructions.” for “instructions. A non-binding, irrelevant negative control ADC conjugated to MMAE was also included in all assays to confirm that cell killing was antigen dependent.”
as §1, with “of” for “of antibodies or”, “instructions.” for “instructions. A non-binding, irrelevant negative control ADC conjugated to MMAE was also included in all assays to confirm that cell killing was antigen dependent.”

## ABBV-399: ADC comprised of the cMet targeting antibody ABT-700 conjugated to MMAE through a valine citrulline (vc) linker
CTG-0170 NSCL PDX
  TGD (%) tumor growth delay: 336%
NSCLC
  patients with partial response: 2/6
  patients with progressive disease (new lesions): 1/6
MDA-MB-231
  Maximal Killing: 0%
SNU-5; MET-amplified SNU-5 gastric cancer cells, FIG. 4
  inhibition of proliferation: inhibited proliferation
SNU-5; SNU-5 gastric cancer, relative to untreated control at ≤1 μg/mL in a six day proliferation
  Maximal Killing: 85%
SNU-5; read-out: ABBV-399 IC50, SNU-5 gastric cancer, cell proliferation assay, Table 7B
  IC50: 0.28 nM
[1]
  in vivo activity, comparison: more active than ABT-700 alone
cMet+ NSCLC; 2/16 treated patients
  radiographic progressive disease: 12.5%
cMet+ NSCLC; 3/16 treated patients
  partial responses: 19%
cMet+ NSCLC; 6/16 treated patients
  stable disease: 37.5%
[2]
  Maximal Killing: 10%
[3]
  tumor response: remained sensitive
[4]
  Maximal Killing: 0%
[5]
  Maximal Killing: 6%
[6]
  Maximal Killing: 0%
[7]
  Maximal Killing: 0%
[8]; Hs746T ABT-700R of approximately 300 mm^3
  tumor response: complete tumor regression
[8]; refractory tumors at mean cohort size approximately 1,000 mm^3, followed by eventual outgrowth
  tumor response: tumor regression
NCI-H820
  Maximal Killing: 87%
